{"source": "patent US20220125877A1", "about": "“METHOD FOR TREATING COLORECTAL CANCER” (SUN YAT-SEN UNIVERSITY, priority 2019, published 2022)", "key": {"[1]": {"test_system": "KRAS mutation CRC cells LoVo", "assay": "Cell cycle, PI/RNase staining, flow cytometry", "type": "cell-based, human", "details": "24 h, FIG. 8C", "description": "(§1) 1) The cells were inoculated onto a 6-well plate, and subjected to adherence growth for 12 h, then starvation treatment over the night, and treated with the addition of an agent for 24 h, then the cells were digested and washed for 3 times with PBS and centrifuged to discard supernatant; −20° C. pre-cooled 70% ethanol was added dropwise, and the cells were mixed well by vortex, and immobilized over the night at −20° C.\n(§2) 2) The cells were horizontally centrifuged for 10 min at 2000 rpm to discard the supernatant; then the cells were washed with PBS for 2-3 times to remove the residual ethanol with centrifugation for 5 min each time.\n(§3) 3) The cells were resuspended by 500 μL PI/RNase dyeing liquor, and incubated for 15 min in the dark, and put on a flow cytometry within 2 h for detection, and 488 nm wavelength was stimulated.\n(§4) 4) FlowJo 7.6 software was used for graphing analysis."}, "[2]": {"test_system": "KRAS wildtype CRC cells SW48", "assay": "Cell cycle, PI/RNase staining, flow cytometry", "type": "cell-based, human", "details": "24 h, FIG. 8C", "description": "as §1, §2, §3, §4"}, "[3]": {"test_system": "SW48+sh-MATE1 CDX", "assay": "Cell-derived xenograft (CDX), tumor growth", "type": "in vivo, BALB/c nude mice", "details": "200 mg/kg in water, 30 d, MATE1 knocked down, FIGS. 12G-L", "description": "(§5) In the CDX, CRISPR/Cas9 was first utilized to build a KRAS^G13DSW48 cell line; MATE1 was knocked down by shRNA lentivirus transduction in SW48 to build a sh-MATE1-SW48 cell line; lentivirus was infected in KRAS^G13DSW48 cells to over-express MATE1. 1×10^6 cells were suspended in a basement membrane matrix (100 μl basement membrane matrix and 100 μl PBS) and subcutaneously injected into BALB/c nude mice. CDX mice were randomly distributed into a metformin treatment group and a control group. 200 mg/kg (equivalent to human 1000 mg) metformin was dissolved into water, and respectively taken by the 4 groups of animals; then the tumor size was measured; 30 d later, the tumor tissues were killed and weighed."}, "[4]": {"test_system": "KRAS^G13DSW48 graft with MATE1 over-expressed", "assay": "Cell-derived xenograft (CDX), tumor growth", "type": "in vivo, BALB/c nude mice", "details": "200 mg/kg in water, 30 d, compared with the KRAS^G13DSW48 tumor, FIGS. 12G-L", "description": "as §5"}, "[5]": {"test_system": "SW48 CDX", "assay": "Cell-derived xenograft (CDX), tumor growth", "type": "in vivo, BALB/c nude mice", "details": "200 mg/kg in water, 30 d, vs control group, FIGS. 12G-L", "description": "The tumor inhibition effect of MATE1 with metformin was verified by a cell-derived xenograft transplantation model (CDX) experiment.\nas §5"}, "[6]": {"test_system": "ERK and AKT signaling pathways of KRAS mutation CRC cells in PDX tumor tissues", "assay": "Western blot of PDX tumor tissues", "type": "in vivo, BALB/c nude mice", "details": "FIG. 9F", "from_the_text": "(2) Tumor tissues from PDX animals were taken and homogenated to extract protein for WB."}, "[7]": {"test_system": "colorectal cancer cells (LoVo, SW48) with altered MATE1", "assay": "Proliferation with MATE1 over-expressed on LoVo or interfered on SW48", "type": "cell-based, human", "details": "FIGS. 12E-F"}, "[8]": {"test_system": "4E-BP1 phosphorylation in LoVo cell line with knock-down KRAS protein", "assay": "Western blot of signaling pathways", "type": "cell-based, human", "details": "FIG. 9E", "description": "(§6) Western blot was used to detect the change of metformin on the related molecules of sroliferative signaling pathways MEK/ERK/cyclin D1/RB and PI3K/AKT/mTOR/4E-BP1, which clarifies the mechanism of metformin in inhibiting the proliferation of KRAS mutation CRC cells.\n(§7) 1) Cells were inoculated on a culture dish and cultured to 60% of fusion degree, and treated with the addition of an agent for 24 h.\n(§8) 2) Protein was collected, and washed with PBS for 3 times, then added with 100 μl 1 RSDS buffer solution (100 mmol/1 Tris-Cl pH6.8, 2% SDS, 10% glycerinum), and at this time, the cell lysis solution was sticky.\n(§9) 3) The cell lysis solution was collected into a 0.5 ml centrifugal tube with a scraper, and cooked for 30 min at 100° C.\n(§10) 4) The total protein extractive in the cells was subjected to protein quantification according to a BCA kit process (BIO-RAD company).\n(§11) 5) The sample was treated according to a ratio of 9 μl denatured protein sample: 1 μl denatured buffer solution (β-mercaptoethanol (BME), 0.4% Bromphenol Blue), and boiled for 30 min at 100° C. for further use.\n(§12) 6) A prepared SDS-PAGE gel (10% separation gel and 5% stacking gel) was taken; samples were added with 40 ug/well, and subjected gel electrophoresis for 30 min at 80V, and gel electrophoresis for 90 min at 120V. […]"}, "[9]": {"test_system": "cyclinD1/RB and AKT/mTOR/4E-BP1 signaling pathways in KRAS (G13D) mutation SW48 cell line", "assay": "Western blot of signaling pathways", "type": "cell-based, human", "details": "FIG. 9D", "description": "as §6, §7, §8, §9, §10, §11, §12"}, "[10]": {"test_system": "KRAS mutation CRC cells LoVo", "assay": "Apoptosis, Annexin V/PI double staining", "type": "cell-based, human", "details": "2.5 mM, 5 mM and 10 mM, 24 h", "description": "(§13) Annexin V/PI double staining was used on the KRAS wildtype cell SW48 and KRAS (G13D) mutation cells LoVo to detect the effect of metformin on the apoptosis of colorectal cancer cells.\n(§14) 1) The cells were inoculated on a 6-well plate and subjected to adherence growth for 12 h, starvation treatment over the night, and treated with the addition of an agent for 24 h, then the cells were digested by EDTA-free trypsin and washed for once with PBS without immobilization.\n(§15) 2) The cells were resuspended with the addition of 300 μl Binding Buffer, then 3 μl Annexin V-FITC and 3 μl Propidium Iodide (PI) were added and mixed well for incubation for 30 min in the dark at room temperature, then the cells were determined by a flow cytometry.\n(§16) 3) Flow cytometry detection of antibodies: apoptosis kit (A211-02) was purchased from KeyGEN; the detection kit (558662) for cell cycle PI simple staining was purchased from BD company."}, "[11]": {"test_system": "KRAS wildtype CRC cells SW48", "assay": "Apoptosis, Annexin V/PI double staining", "type": "cell-based, human", "details": "2.5 mM, 5 mM and 10 mM, 24 h", "description": "as §13, §14, §15, §16"}, "[12]": {"test_system": "ERK, RB, MPK, AKT, mTOR and 4E-BP1 phosphorylation in LoVo", "assay": "Western blot of MEK/ERK/cyclin D1/RB and PI3K/AKT/mTOR/4E-BP1 signaling", "type": "cell-based, human", "details": "24 h, FIGS. 9A-C", "description": "as §6, §7, §8, §9, §10, §11, §12"}, "[13]": {"test_system": "ERK, RB, MPK, AKT, mTOR and 4E-BP1 phosphorylation in SW48", "assay": "Western blot of MEK/ERK/cyclin D1/RB and PI3K/AKT/mTOR/4E-BP1 signaling", "type": "cell-based, human", "details": "24 h, FIGS. 9A-C", "description": "as §6, §7, §8, §9, §10, §11, §12"}}, "data": [{"smiles": "CN(C)C(=N)N=C(N)N", "note": "[metformin]", "values": [{"measurement": "ratio of phase S cells", "setting": "[1]", "value": "reduces"}, {"measurement": "ratio of G1 cells", "setting": "[1]; concentration dependent", "value": "dependently increases"}, {"measurement": "cell cycle distribution (G1, phase S)", "setting": "[2]", "value": "no obvious effect"}, {"measurement": "tumor growth", "setting": "[3]", "value": "significantly inhibits the tumor growth"}, {"measurement": "anti-tumor effect (tumor growth)", "setting": "[4]", "value": "has no effect"}, {"measurement": "anti-tumor effect (tumor growth)", "setting": "[5]", "value": "no obvious anti-tumor effect"}, {"measurement": "ERK and AKT signaling pathways in PDX tumor tissues", "setting": "[6]", "value": "inhibits"}, {"measurement": "inhibiting effect on proliferation with down-regulated expression of MATE1", "setting": "[7]", "value": "accelerating the inhibiting effect"}, {"measurement": "inhibiting effect on LoVo protein and 4E-BP1 phosphorylation after interference of KRAS (G13D) expression", "setting": "[8]", "value": "down-regulate the inhibiting effect"}, {"measurement": "change of the cyclinD1/RB and AKT/mTOR/4E-BP1 signaling pathways", "setting": "[9]", "value": "consistent with the KRAS mutation CRC cells LoVo"}, {"measurement": "apoptosis", "setting": "[10]", "value": "do not accelerate the apoptosis"}, {"measurement": "apoptosis", "setting": "[11]", "value": "do not accelerate the apoptosis"}, {"measurement": "phosphorylation levels in ERK, RB, MPK, AKT, mTOR and 4E-BP1", "setting": "[12]", "value": "inhibited phosphorylation levels"}, {"measurement": "phosphorylation levels in ERK, RB, MPK, AKT, mTOR and 4E-BP1", "setting": "[13]", "value": "no obvious change"}]}]}
